Laboratory results published in patent US20230277452A1, “COMPOSITIONS, DEVICES AND METHODS FOR TREATING NASAL, OTIC AND OTHER TISSUE INFECTION AND/OR INFLAMMATION” (priority 2020, published 2023).
Blank lines part the entries; values can stand above or below the compound they belong to.

Assays:
[1] = system: Pseudomonas aeruginosa; settings: cited from earlier work
[2] = system: Streptococci, Staphylococci, Gardnerella vaginalis, and Corynebacteria; settings: cited from earlier work
[3] = Forced degradation of fluticasone propionate, percent recovery by HPLC; assay type: physicochemical
Procedure: A similar analysis was performed of the 0.005% fluticasone propionate cream (lot #2021-07-01).

[4] = Recovery of force-degraded fluticasone propionate spiked into placebo and of active cream, HPLC; assay type: physicochemical; settings: Spiked into placebo
[5] = cited from earlier work
[6] = humans with psoriasis, topical betamethasone dipropionate 0.05% spray or lotion BID for 15 days; majority of subjects not measurable; cited from earlier work

Structure (SMILES): Clc1ccccc1C(c1ccccc1)(c1ccccc1)n1ccnc1 [clotrimazole]
effect on Pseudomonas aeruginosa [1]: reduction | antibacterial activity [2]: antibacterial activity

Actual Amount ([3]; Acid (0.1N HCl, 1 hour)): 12.1791 µg/mL | Actual Amount ([3]; Base (0.1N NaOH, 1 hour)): 11.7484 µg/mL | Actual Amount ([3]; Control): 12.5695 µg/mL | Actual Amount ([3]; Heat (60° C., 3 days)): 12.0739 µg/mL | Actual Amount ([3]; Light (white light, 3 days)): 11.6609 µg/mL | Actual Amount ([3]; Peroxide (3% H2O2, 1 hour)): 16.4961 µg/mL | Peak Area FP ([4]; Acid): 2.377 | Peak Area RRT = 0.32 ([4]; Acid): 0.033 | Peak Area RRT = 0.33 ([4]; Acid): no peak | Peak Area RRT = 1.17 ([4]; Acid): 0.221 | Total MFM-Related Area ([4]; Acid): 2.631 | Peak Area FP ([4]; Base): 2.395 | Peak Area RRT = 0.32 ([4]; Base): 0.032 | Peak Area RRT = 0.33 ([4]; Base): no peak | Peak Area RRT = 1.17 ([4]; Base): 0.166 | Total MFM-Related Area ([4]; Base): 2.593 | Peak Area FP ([4]; Control): 2.607 | Peak Area RRT = 0.32 ([4]; Control): no peak | Peak Area RRT = 0.33 ([4]; Control): 0.012 | Peak Area RRT = 1.17 ([4]; Control): 0.046 | Total MFM-Related Area ([4]; Control): 2.665 | Peak Area FP ([4]; Heat): 2.924 | Peak Area RRT = 0.32 ([4]; Heat): no peak | Peak Area RRT = 0.33 ([4]; Heat): no peak | Peak Area RRT = 1.17 ([4]; Heat): 0.183 | Total MFM-Related Area ([4]; Heat): 3.107 | Peak Area FP ([4]; Light): 2.599 | Peak Area RRT = 0.33 ([4]; Light): no peak | Peak Area RRT = 1.17 ([4]; Light): 0.159 | Total MFM-Related Area ([4]; Light): 2.791 | Peak Area FP ([4]; Peroxide): 2.424 | Peak Area RRT = 0.32 ([4]; Peroxide): no peak | Peak Area RRT = 0.33 ([4]; Peroxide): no peak | Peak Area RRT = 1.17 ([4]; Peroxide): no peak | Total MFM-Related Area ([4]; Peroxide): 2.424
Structure (SMILES): CCC(=O)O[C@]1(C(=O)SCF)[C@H](C)C[C@H]2[C@@H]3C[C@H](F)C4=CC(=O)C=C[C@]4(C)[C@@]3(F)[C@@H](O)C[C@@]21C [fluticasone propionate]

Structure (SMILES): C[C@H]1C[C@@H]2[C@H]([C@@H](O)C[C@@]3(C)[C@H]2CC[C@]3(O)C(=O)CO)[C@@]2(C)C=CC(=O)C=C12 [Methyl-prednisolone, methylprednisolone]
Biological Half Life [5]: 18-36 Hours

Structure (SMILES): C[C@]12CCC(=O)C=C1CC[C@@H]1[C@@H]2[C@@H](O)C[C@@]2(C)[C@H]1CC[C@]2(O)C(=O)CO [hydrocortisone]
Biological Half Life [5]: 8-12 Hours

Structure (SMILES): C[C@]12C=CC(=O)C=C1CC[C@H]1[C@@H]3C[C@@H](O)[C@](O)(C(=O)CO)[C@@]3(C)C[C@H](O)[C@@]12F [triamcinolone]
Biological Half Life [5]: 18-36 Hours

Structure (SMILES): C[C@]12C=CC(=O)C=C1CC[C@@H]1[C@@H]2[C@@H](O)C[C@@]2(C)[C@H]1CC[C@]2(O)C(=O)CO [prednisolone]
Biological Half Life [5]: 18-36 Hours

Structure (SMILES): CCC(=O)OCC(=O)[C@@]1(OC(=O)CC)[C@@H](C)C[C@H]2[C@@H]3CCC4=CC(=O)C=C[C@]4(C)[C@@]3(F)[C@@H](O)C[C@@]21C [Betamethasone dipropionate, 9-Fluoro-11β,17,21-trihydroxy-16β-methylpregna-1,4-diene-3,20-dione 17,21-dipropionate]
plasma concentration [6]: < 5 pg/mL | Biological Half Life [5]: 36-54 Hours
